This note sets out measurements from paper PMC10320843 (2023).

The subject of test [1] is 5'Cy5-Myc (DNA, G4) GAGGGTGGGGAGGGTGGGGAAG
In words: Cy5 fluorescence quenching titration. As to conditions: 50 mM TrisHCl/Triton buffer (Table S1), 25 °C; 20 nM DNA; apparent.

For test [2], the system named is F-TERRA (RNA, G4) GGGUUAGGGUUAGGGUUAGGG
Description: streptavidin bead pull-down, FAM fluorescence. The conditions noted are these: Mg2+ (concentration in Table S1); 20 mM TrisHCl/MgCl2 buffer, 25 °C; 10 μM compound, 1 μM nucleic acid; no TASQ = 1.

Test [3] deals with G4-strand (97-nt ODN) (DNA, G4) TAGCCATTCAGCCGTAACAGGCAGTGGAAGAGAGACAGACAGGGCAGGGCAGGGCAGGGCAGTACAGTAGAACCTAATGGTGTTTGATGGTATCTAA
In words: streptavidin bead pull-down, qPCR (SYBR green). As to conditions: 40 μM compound, 4 μM DNA; fluorescence difference from no TASQ. (Quantitative PCR measures a nucleic acid by following its amplification.)

The test system of test [4] is F-Myc (DNA, G4) GAGGGTGGGGAGGGTGGGGAAG
In words: streptavidin bead pull-down, FAM fluorescence. As to conditions: Mg2+ (concentration in Table S1); 20 mM TrisHCl/MgCl2 buffer, 25 °C; 10 μM compound, 1 μM nucleic acid; no TASQ = 1.

Test [5] deals with F-NRAS (RNA, G4) GGGAGGGGCGGGUCUGGG
Description: streptavidin bead pull-down, FAM fluorescence. As to conditions: Mg2+ (concentration in Table S1); 20 mM TrisHCl/MgCl2 buffer, 25 °C; 10 μM compound, 1 μM nucleic acid; no TASQ = 1.

The test system of test [6] is F-VEGF (RNA, G4) GGAGGAGGGGAGGAGGA
Description: streptavidin bead pull-down, FAM fluorescence. As to conditions: Mg2+ (concentration in Table S1); 20 mM TrisHCl/MgCl2 buffer, 25 °C; 10 μM compound, 1 μM nucleic acid; no TASQ = 1.

The subject of test [7] is F-22AG (DNA, G4) AGGGTTAGGGTTAGGGTTAGGG
In words: streptavidin bead pull-down, FAM fluorescence. The conditions noted are these: Mg2+ (concentration in Table S1); 20 mM TrisHCl/MgCl2 buffer, 25 °C; 10 μM compound, 1 μM nucleic acid; no TASQ = 1.

In test [8] the test system is F-duplex (DNA, hairpin) TATAGCTATATTTTTTTATAGCTATA
Description: streptavidin bead pull-down, FAM fluorescence. The conditions noted are these: Mg2+ (concentration in Table S1); 20 mM TrisHCl/MgCl2 buffer, 25 °C; 10 μM compound, 1 μM DNA; no TASQ = 1.

Test [9] deals with F-Myc-T (DNA, G4) GAGGGTGGGGAGGGTGGGGAAG
Description: FRET-melting. The conditions noted are these: K+ (CacoK1, Table S1); CacoK1 buffer; 1 μM compound, 0.2 μM nucleic acid; no competitor.

Test [10] deals with F-TERRA-T (RNA, G4) GGGUUAGGGUUAGGGUUAGGG
In words: FRET-melting. As to conditions: K+ (CacoK1, Table S1); CacoK1 buffer; 1 μM compound, 0.2 μM nucleic acid; no competitor.

In test [11] the test system is F-Kit2-T (DNA, G4) CGGGCGGGCGCGAGGGAGGGG
Description: FRET-melting. As to conditions: buffer not stated in main text.

The subject of test [12] is F-VEGF-T (RNA, G4) GGAGGAGGGGAGGAGGA
In words: FRET-melting. As to conditions: K+ (CacoK1, Table S1); CacoK1 buffer; 1 μM compound, 0.2 μM nucleic acid; no competitor.

Test [13] concerns F-NRAS-T (RNA, G4) GGGAGGGGCGGGUCUGGG
Description: FRET-melting. The conditions noted are these: 1 μM compound, 0.2 μM RNA; no competitor; buffer not stated.

Test [14] concerns F21T (DNA, G4) GGGTTAGGGTTAGGGTTAGGG
In words: FRET-melting. The conditions noted are these: K+ (CacoK10, Table S1); CacoK10 buffer; 1 μM compound, 0.2 μM nucleic acid; no competitor.

As for `NCCN(CC(=O)NCCCCCN1CCN(CCCCCNC(=O)CN(CCN)C(=O)Cn2cnc3c(=O)[nH]c(N)nc32)CCN(CCCCCNC(=O)CN(CCN)C(=O)Cn2cnc3c(=O)[nH]c(N)nc32)C(CNC(=O)CCCC[C@@H]2SC[C@@H]3NC(=O)N[C@@H]32)CN(CCCCCNC(=O)CN(CCN)C(=O)Cn2cnc3c(=O)[nH]c(N)nc32)CC1)C(=O)Cn1cnc2c(=O)[nH]c(N)nc21` (some centres unmarked), in test [1], the appKD worked out at 1.01 ± 0.1 µM. Further, the fold enrichment in test [2] was 4.0 ± 0.0 fold; in [4], 21.5 ± 0.1 fold; in [5] it was 5.2 ± 0.9 fold; in test [6] it was 8.2 ± 0.2 fold; in test [7], 15.9 ± 0.9 fold; in test [8], 0.9 ± 0.2 fold. This compound displayed a ΔFI in [3] of 457.

As for `[N-]=[N+]=NCCCCCC(=O)NCC1CN(CCCCCNC(=O)CN(CCN)C(=O)Cn2cnc3c(=O)[nH]c(N)nc32)CCN(CCCCCNC(=O)CN(CCN)C(=O)Cn2cnc3c(=O)[nH]c(N)nc32)CCN(CCCCCNC(=O)CN(CCN)C(=O)Cn2cnc3c(=O)[nH]c(N)nc32)CCN1CCCCCNC(=O)CN(CCN)C(=O)Cn1cnc2c(=O)[nH]c(N)nc21` (centres unmarked), in test [1], the appKD came to 0.90 ± 0.1 µM. The ΔT1/2 in test [9] was 6.4 ± 0.2 °C; in test [10], 12.4 ± 0.6 °C; in test [11], 7.7 ± 1.0 °C; in [12], 11.3 ± 0.4 °C; in test [13] it was 14.6 ± 1.1 °C; in test [14], 2.2 ± 0.3 °C.

Regarding `C#CCCCC(=O)NCC1CN(CCCCCNC(=O)CN(CCN)C(=O)Cn2cnc3c(=O)[nH]c(N)nc32)CCN(CCCCCNC(=O)CN(CCN)C(=O)Cn2cnc3c(=O)[nH]c(N)nc32)CCN(CCCCCNC(=O)CN(CCN)C(=O)Cn2cnc3c(=O)[nH]c(N)nc32)CCN1CCCCCNC(=O)CN(CCN)C(=O)Cn1cnc2c(=O)[nH]c(N)nc21` (centres unmarked), the appKD in [1] amounted to 1.44 ± 0.1 µM. Moreover, the ΔT1/2 was determined as 5.3 ± 0.3 °C in test [9]; 11.0 ± 0.9 °C in [10]; 5.8 ± 0.2 °C in test [11]; 11.9 ± 0.4 °C in [12]; 11.8 ± 0.7 °C in test [13]; 2.5 ± 0.2 °C in test [14].

Take `C[n+]1cc(NC(=O)c2ccc3ccc4ccc(C(=O)Nc5cc6ccccc6[n+](C)c5)nc4c3n2)cc2ccccc21`: in test [1], the appKD turned out to be 0.0577 ± 0.0002 µM.
